Results: ChEMBL document CHEMBL3745657, “Core chemotype diversification in the HIV-1 entry inhibitor class using field-based bioisosteric replacement” (Bioorg Med Chem Lett, 2016)

Tests used:
Format in all cases: functional, organism-based
[1] = tested on: Human immunodeficiency virus 1; experiment: Antiviral activity against recombinant HIV-1 NL4-3 expressing HIV-1 JR-CSF envelope infected in U87.CD4.CCR5 cells assessed as inhibition of Env mediated cell entry by HIV-1 single round infection assay; details: Human immunodeficiency virus 1, NL4-3, U87/CD4/CCR5
[2] = tested on: Human immunodeficiency virus 1; experiment: Antiviral activity against recombinant HIV-1 NL4-3 expressing HIV-1 B41 envelope infected in U87.CD4.CCR5 cells assessed as inhibition of Env mediated cell entry by HIV-1 single round infection assay; details: Human immunodeficiency virus 1, NL4-3, U87/CD4/CCR5
[3] = tested on: Human immunodeficiency virus 1; experiment: Antiviral activity against recombinant HIV-1 NL4-3 expressing AMLV envelope infected in U87.CD4.CCR5 cells assessed as inhibition of Env mediated cell entry by HIV-1 single round infection assay
[4] = tested on: Human immunodeficiency virus 1; experiment: Antiviral activity against recombinant HIV-1 NL4-3 expressing HIV-1 HxBc2 envelope infected in U87.CD4.CXCR4 cells by HIV-1 single round infection assay; details: Human immunodeficiency virus 1, NL4-3, U87.CD4.CXCR4

IC50 ([1]; read-out: IC50) [nM] | IC50 ([1]; read-out: pIC50 (converted)) [nM] | IC50 [2] [nM] | IC50 [3] | IC50 [4] [nM] | Structure (SMILES)
100000 | – | – | – | – | COc1cnc(Cl)c2[nH]cc(C(=O)C(=O)N3CC4CN(C(=O)c5ccccc5)CC4C3)c12 (centres undefined)
1 | 0.794 | – | – | – | COc1cnc(-n2cnc(C)n2)c2[nH]cc(C(=O)C(=O)N3CC4CN(C(=O)c5ccccc5)CC4C3)c12 (centres undefined)
2 | – | – | – | – | COc1cnc(-n2cnc(C)n2)c2[nH]cc(C(=O)C(=O)N3CC4CN(C(=O)C5=CCCCC5)CC4C3)c12 (centres undefined)
13000 | 12900 | 3900 | Not Active | 36000 | COc1cnc(-n2cnc(C)n2)c2[nH]cc(C(=O)C(=O)N3CCC4(CCN(C(=O)c5ccccc5)CC4)C3)c12
96 | – | 85 | Not Active | 69 | COc1cnc(-n2cnc(C)n2)c2[nH]cc(C(=O)C(=O)NC3C4CN(C(=O)c5ccccc5)CC43)c12 (centres undefined)
3 | – | 7 | Not Active | 9 | COc1cnc(-n2cnc(C)n2)c2[nH]cc(C(=O)C(=O)N3CC(CCC(=O)c4ccccc4)C3)c12
8 | – | 6 | Not Active | 80 | COc1cnc(-n2cnc(C)n2)c2[nH]cc(C(=O)C(=O)N3CC4C=NN(c5ccccc5)C4C3)c12 (centres undefined)
224 | – | 350 | Not Active | 380 | COc1cnc(-n2cnc(C)n2)c2[nH]cc(C(=O)C(=O)N3CC=C(CNC(=O)c4ccccc4)CC3)c12
2500 | – | 3800 | Not Active | 3800 | COc1cnc(-n2cnc(C)n2)c2[nH]cc(C(=O)NCC3CN(C(=O)c4ccccc4)C3)c12
